10 compounds from patent US9643951B2, “Compound having somatostatin receptor agonistic activity and pharmaceutical use thereof” (ONO PHARMACEUTICAL CO., LTD., priority 2013, dated 2017) can be followed below.

SMILES strings stand for the structures.

Series [1] relates to growth hormone (GH) secretion. As to the kind of experiment: Evaluation of suppression of growth hormone (GH) secretion using rats (GHRH-induced). It is filed as in vivo. To be noted: Rattus norvegicus, Procedure (B): oral administration 8 hours beforehand, read-out: percentage of suppression of GH secretion. On the procedure: Evaluation of Suppression of Growth Hormone (GH) Secretion Using Rats
[Procedure (A): Administration of a Test Compound 30 Minutes Beforehand]
A medium (distilled water (Otsuka distilled water, Otsuka Pharmaceutical Factory, […]) IGS rats (Charles River Laboratories Japan, Inc.)) and after 27 minutes, the animals were administered with 50 mg/kg of pentobarbital sodium (Somnopentyl, Kyoritsu Seiyaku Corporation) via the tail vein for anaesthesia. Three minutes after administration of pentobarbital sodium, the rats were administered with 0.01 mg/kg of growth hormone-releasing hormone (GHRH, Bachem) via the tail vein to induce GH secretion. In order to measure the blood GH concentration, 0.2 mL of blood was collected through the jugular vein at 5 minutes after administration of GHRH. The collected blood was centrifuged at 4° C., 13,000×g for 5 minutes to obtain plasma. The blood GH concentration was measured by using Rat/Mouse Growth Hormone ELISA (Millipore) following the instruction of the kit. The percentage (%) of suppression of GH secretion was determined by using the obtained blood GH concentration and the equation {[suppression (%) of GH secretion]=([blood GH concentration of the group administered with the medium]−[blood GH concentration of the group administered with a test compound])/[blood GH concentration of the group administered with the medium]×100}. In the equation, the group administered with the medium represents the group of animals administered with the medium and the group administered with a test compound represents the group of animals administered with a test compound dissolved in the medium.
[Procedure (B): Administration of a Test Compound 8 Hours Beforehand]
A medium (distilled water (Otsuka distilled water, Otsuka Pharmaceutical Factory, […]) IGS rats (Charles River Laboratories Japan, Inc.)) and after 7 hours and 57 minutes, the animals were administered with 50 mg/kg of pentobarbital sodium (Somnopentyl, Kyoritsu Seiyaku Corporation) via the tail vein for anaesthesia. Three minutes after administration of pentobarbital sodium, the rats were administered with 0.01 mg/kg of growth hormone-releasing hormone (GHRH, Bachem) via the tail vein to induce GH secretion. The rest of the procedure is the same as in [Procedure (A)] described above.

In series [2] the target is T1, human SSTR2 (Homo sapiens, UniProt P30874).
T1 construct: Myc; expressed in transfected cells
T1 sequence (P30874 whole entry): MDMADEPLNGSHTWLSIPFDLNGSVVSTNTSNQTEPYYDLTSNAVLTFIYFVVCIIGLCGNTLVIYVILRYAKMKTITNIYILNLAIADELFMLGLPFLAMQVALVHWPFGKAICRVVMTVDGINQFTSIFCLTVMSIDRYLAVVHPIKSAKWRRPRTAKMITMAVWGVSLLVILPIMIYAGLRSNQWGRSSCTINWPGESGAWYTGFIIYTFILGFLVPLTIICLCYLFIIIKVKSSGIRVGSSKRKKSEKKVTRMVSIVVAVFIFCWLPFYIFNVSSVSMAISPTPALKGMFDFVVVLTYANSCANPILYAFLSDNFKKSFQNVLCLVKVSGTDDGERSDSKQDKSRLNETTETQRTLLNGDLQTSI
As to the kind of experiment: Evaluation of SSTR2 agonistic activity using cells expressing human SSTR2 (suppression of forskolin-stimulated cAMP production, SSTR2-CHO-K1). It is filed as cell-based. On the procedure:
Evaluation of SSTR2 Agonistic Activity Using Cells Expressing Human SSTR2
(1) Isolation of Human SSTR2 Gene
Human brain cDNA was purchased from Ambion (catalogue No.: 7962; Lot No.: 040200121). PCR primers, hSSTR2_F1_XhoI: 5′-[…]-3′ (SEQ ID NO: 1) and hSSTR2_R1_EcoRI: 5′-[…]-3′ (SEQ ID NO: 2) were designed on the basis of the sequence GenBank NM_001050.
PCR reaction (95° C. for 2 min.→[98° C. for 10 sec., 60° C. for 30 sec. and 68° C. for 90 sec.]×30 cycles) was carried out using the human brain cDNA as a template and using KOD-plus-(TOYOBO Co., Ltd.). The amplified PCR product was subjected to 1% agarose gel electrophoresis, purified using QIAquick Gel Extraction Kit (QIAGEN) and digested with restriction enzymes XhoI and EcoRI. The digested fragments were ligated to an expression vector (pIRESneo-Myc) using the DNA Ligation Kit Ver. 2 (Takara) and used for transformation of E. coli DH5a. The plasmid pIRESneo-Myc/hSSTR2 was prepared and the DNA sequence thereof was confirmed.
(2) Culture of CHO-K1 Cells
CHO-K1 (−) was cultured in Ham's F-12 medium (containing foetal bovine serum (10%), penicillin (100 U/mL) and streptomycin (0.1 mg/mL)). The transduced cells were cultured in the same medium supplemented with Geneticin (1 mg/mL).
(3) Transduction of CHO-K1 Cells
CHO-K1(−) cells were transduced with the plasmid pIRESneo-Myc/hSSTR2 using Lipofectamine 2000 (Invitrogen). After 48 hours, selection was carried out by replacing the medium with the one containing 1 mg/mL of Geneticin to establish a stable overexpressing cell line (SSTR2-CHO-K1).
(4) Evaluation of SSTR2 Agonistic Activity
The human SSTR2 agonistic activity of a test compound was evaluated according to the following procedures by using a suppression activity of intracellular cyclic AMP (cAMP) production by forskolin stimulation as an index. SSTR2-CHO-K1 cells suspended in Ham's F-12 medium (containing foetal bovine serum (10%), penicillin (100 U/mL) and streptomycin (0.1 mg/mL)) supplemented with 0.25 mg/mL of Geneticin were inoculated into a 96-well plate at a density of 4.0×10^4 cells/0.1 mL per well. On the next day, the medium was removed and washed twice with 0.1 mL of wash buffer [0.1% bovine serum albumin (BSA), 20 mmol/L 4-(2-hydroxyethyl)-1-piperazineethane sulphonic acid (HEPES)-containing Hank's balanced salt solution (HBSS)]. An assay buffer [[…] 3-isobutyl-1-methylxanthine (IBMX), 0.1% BSA, 20 mmol/L HEPES-containing HBSS] was added to the wells at 0.06 mL per well and the plate was incubated for 15 minutes under the conditions of 5% carbon dioxide and 37° C. Thereafter, an assay buffer containing a test compound at a concentration twice as high as the final concentration and 0.02 mmol/L of forskolin was added to wells at 0.06 mL per well and the plate was incubated for 30 minutes under the conditions of 5% carbon dioxide and 37° C. Thereafter, the Assay/Lysis buffer included in the cAMP-Screen® kit (available from Applied Biosystems) was added to wells at 0.12 mL per well and the plate was incubated for 30 minutes under the conditions of 5% carbon dioxide and 37° C. The concentration of cAMP in samples were measured by ELISA according to the instruction of the kit.
On the technique in general: Changes in cAMP serve as a functional read-out for many G protein-coupled receptors.

Series [3] is described as follows: Human hepatic microsome stability test. The format is in vitro ADME. To be noted: human hepatic microsomes 1 mg/mL; 60 minutes; test compound 0.001 mmol/L; 37° C. On the procedure:
Human Hepatic Microsome Stability Test
To a reaction vessel heated to 37° C. in a water bath, 0.392 mL of phosphate buffer (0.1 mol/L, pH 7.4) containing human hepatic microsomes (1 mg/mL, Xenotech) and NADPH-Co-factor (NADP+1.3 mmol/L, BD-Bioscience) was added and pre-incubated for 5 minutes. A 50% acetonitrile solution (0.008 mL) containing 0.05 mmol/L of a test compound was added thereto to initiate the enzyme reaction (final concentration of the test compound: 0.001 mmol/L). Immediately after initiation of the reaction and at 60 minutes thereafter, 0.050 mL of the reaction solution was respectively collected, which was immediately added to an acetonitrile solution (0.2 mL) containing an internal standard (45 nmol/L, 1-[3-(3,5-dimethylphenyl)-4-quinolinyl]-4-piperidineamine) to terminate the enzyme reaction.
The residual rate (%), which is indicative of stability of the test compound, was calculated using the ratio of peak areas between the test compound and the internal substance determined by LC/MS/MS (TSQ Quantum Discovery MAX, Thermo) analysis of the sample thus prepared by the above procedures followed by filtration, and the equation: {[residual rate (%)=[peak area of a test compound in a sample at 60 minutes after initiation of the reaction/peak area of the internal standard]/[peak area of the test compound in the sample immediately after initiation of the reaction/peak area of the internal standard]×100}.

Series [4] in a line: Evaluation of cytotoxicity using cultured human hepatocytes (intracellular ATP). The format is cell-based. To be noted: read-out: IC50 of cytotoxicity (concentration at which 50% of the luminescence is suppressed). On the procedure:
Evaluation of Cytotoxicity Using Cultured Human Hepatocytes
Frozen adhesive human hepatocytes were thawed, suspended in a hepatocellular medium (HCM) purchased from Lonza and inoculated to a 96-well plate coated with collagen. The culture medium of the hepatocytes cultured overnight in an incubator (5% carbon dioxide, 95% air, 37° C.) was exchanged to the medium containing a test compound at a concentration of 0, 12.5, 25, 50, 100, 200 or 400 (×10^−6 mol/L) and the cells were further cultured for 24 hours. Cytotoxicity was evaluated by measuring the intracellular ATP concentration. Specifically, using the Promega Celltiter-Glo luminescent assay kit available from Promega, cells were lysed in the assay buffer included in the kit and the concentration of ATP released from the cells was measured according to the luminescence resulting from luciferin-luciferase enzyme activity. The luminescence was measured on the SpectraMax plate reader from Molecular Devices. The extent of cytotoxicity of a test compound is represented by the concentration (IC50) of the compound at which 50% of the luminescence is suppressed.

On to `CCNC1CCN(c2c(/C=C/c3cccc(C#N)c3)cncc2-c2cc(Cl)cc(Cl)c2)CC1` [Example 5(6), 3-[(E)-2-{5-(3,5-dichlorophenyl)-4-[4-(ethylamino)-1-piperidinyl]-3-pyridinyl}vinyl]benzonitrile], for which, in series [1], the inhibition in vivo at 1 mg/kg worked out at 89%. Also, in series [2], the response was half-maximal at 48 pM (EC50). This compound also showed a residual rate in series [3] of 83.9%. Moreover, in series [4], the IC50 at 24 h is 18 µM.
For `CCNC1CCN(c2c(/C=C(\C)c3cccc(C#N)c3)cncc2-c2cc(Cl)cc(Cl)c2)CC1` [Example 5, 3-[(1E)-1-{5-(3,5-dichlorophenyl)-4-[4-(ethylamino)-1-piperidinyl]-3-pyridinyl}-1-propen-2-yl]benzonitrile], in series [1], the inhibition in vivo at 1 mg/kg stood at 90%. In addition, the EC50 (in general, the concentration that produces a half-maximal response) in series [2] amounted to 47 pM. Further, the residual rate in series [3] came to 79.7%. Further, the IC50 at 24 h in series [4] stood at 18 µM.
Regarding `CCNC1CCN(c2c(-c3ccc(OC(F)F)cc3)cncc2-c2cc(Cl)cc(Cl)c2)CC1` [Example 5(3), 1-{3-(3,5-dichlorophenyl)-5-[4-(difluoromethoxy)phenyl]-4-pyridinyl}-N-ethyl-4-piperidineamine], the inhibition in vivo at 1 mg/kg in series [1] is 96%. In series [2], this compound had an EC50 of 28 pM. This compound also had a residual rate in series [3] of 67.7%. Moreover, the IC50 at 24 h in series [4] turned out to be 10 µM.
For `NC1CCN(c2c(-c3ccc(OC(F)F)cc3)cncc2-c2cc(F)cc(Cl)c2)CC1` [Example 2(1), 1-{3-(3-chloro-5-fluorophenyl)-5-[4-(difluoromethoxy)phenyl]-4-pyridinyl}-4-piperidineamine], in series [1], the inhibition in vivo at 1 mg/kg was determined as 91%. The compound also yielded an EC50 in series [2] of 41 pM. Further, the residual rate in series [3] is recorded as 100.0%. Moreover, the IC50 at 24 h in series [4] came to 19 µM.
The matching figures for `NC1CCN(c2c(-c3ccc(OC(F)F)cc3)cncc2-c2cc(Cl)cc(Cl)c2)CC1` [Example 2(3), 1-{3-(3,5-dichlorophenyl)-5-[4-(difluoromethoxy)phenyl]-4-pyridinyl}-4-piperidineamine]: 88%, 21 pM, 96.4% and 9 µM.
On to `NC1CCN(c2c(-c3ccc(C(F)(F)F)cc3)cncc2-c2cc(Cl)cc(Cl)c2)CC1` [Example 1, 1-{3-(3,5-dichlorophenyl)-5-[4-(trifluoromethyl)phenyl]-4-pyridinyl}-4-piperidineamine], for which the inhibition in vivo at 1 mg/kg in series [1] was found to be 93%. In series [2], this compound gave an EC50 of 31 pM. Further, in series [3], the residual rate is reported as 94.6%. Moreover, the IC50 at 24 h in series [4] came to 19 µM.
For `C/C(=C\c1cncc(-c2cc(Cl)cc(Cl)c2)c1N1CCC(N)CC1)c1cccc(F)c1` [Example 3, 1-{3-(3,5-dichlorophenyl)-5-[(1E)-2-(3-fluorophenyl)-1-propen-1-yl]-4-pyridinyl}-4-piperidineamine], the inhibition in vivo at 1 mg/kg in series [1] is 88%. In series [2], it took 40 pM to reach a half-maximal effect (EC50). In series [3], this compound registered a residual rate of 85.2%. In addition, the IC50 at 24 h in series [4] was 36 µM.
In the case of `Fc1cccc(/C=C/c2cncc(-c3cc(Cl)cc(Cl)c3)c2N2CC[C@@H]3NCCO[C@H]3C2)c1` [Example 3(2), (4aS,8aS)-6-{3-(3,5-dichlorophenyl)-5-[(E)-2-(3-fluorophenyl)vinyl]-4-pyridinyl}octahydro-1H-pyrido[3,4-b][1,4]oxazine], the inhibition in vivo at 1 mg/kg in series [1] is 84%. Besides, the EC50 in series [2] amounted to 97 pM. Moreover, the residual rate in series [3] is 48.4%. Besides, in series [4], the IC50 at 24 h came to 17 µM.
As to `C/C(=C\c1cncc(-c2cc(Cl)cc(Cl)c2)c1N1CCC(N)CC1)c1cccc(C#N)c1` [Example 4, 3-{(1E)-1-[4-(4-amino-1-piperidinyl)-5-(3,5-dichlorophenyl)-3-pyridinyl]-1-propen-2-yl}benzonitrile], the inhibition in vivo at 1 mg/kg in series [1] is 84%. Also, the EC50 in series [2] turned out to be 34 pM. In series [3], the residual rate turned out to be 100.0%. For the same compound, in series [4], the IC50 at 24 h was found to be 17 µM.
With `NC1CCN(c2c(NC(=O)c3cccc(Cl)c3)cncc2-c2cc(F)cc(Cl)c2)CC1` [Example 7, N-[4-(4-amino-1-piperidinyl)-5-(3-chloro-5-fluorophenyl)-3-pyridinyl]-3-chlorobenzamide], in series [1] (10 mg/kg), the inhibition in vivo at 10 mg/kg came out at 93%. Also, the EC50 in series [2] is 340 pM. The compound further had a residual rate in series [3] of 100.0%. Besides, the IC50 at 24 h in series [4] amounted to 74 µM.
